# Measurements: paper PMC8945123 (ACS Omega, 2022)
# Where “and” joins values, the source holds several entries; their conditions need not be identical. Identical values can stand only once. Entries after “also recorded” stand apart in the source; their conditions may differ. Like-named read-outs stand apart in the source and are kept apart here.
# How the values were obtained:
# [1] = target: eqBChE (Equus caballus, UniProt P81908); assay: In vitro eqBChE inhibition, Ellman's method; format: biochemical
# Sequence of eqBChE (P81908 whole entry): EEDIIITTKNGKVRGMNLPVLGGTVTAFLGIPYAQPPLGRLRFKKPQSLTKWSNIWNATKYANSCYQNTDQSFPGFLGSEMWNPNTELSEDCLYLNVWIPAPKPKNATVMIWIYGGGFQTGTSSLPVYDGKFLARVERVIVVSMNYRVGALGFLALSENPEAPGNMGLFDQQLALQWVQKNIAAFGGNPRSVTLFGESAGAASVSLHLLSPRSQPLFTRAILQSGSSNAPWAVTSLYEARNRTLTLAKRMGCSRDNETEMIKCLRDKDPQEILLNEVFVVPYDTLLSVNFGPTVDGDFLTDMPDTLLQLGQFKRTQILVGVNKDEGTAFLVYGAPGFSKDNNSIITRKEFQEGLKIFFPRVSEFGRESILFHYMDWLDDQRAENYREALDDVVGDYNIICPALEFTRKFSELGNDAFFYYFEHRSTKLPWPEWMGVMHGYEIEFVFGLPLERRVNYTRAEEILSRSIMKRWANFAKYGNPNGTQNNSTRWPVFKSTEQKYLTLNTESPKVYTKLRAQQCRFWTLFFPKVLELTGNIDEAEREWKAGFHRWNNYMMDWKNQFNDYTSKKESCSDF
# [2] = target: T1, hMAO-B (Homo sapiens, UniProt P27338); assay: In vitro inhibition of recombinant human MAO-B, fluorometric; format: biochemical
# T1 sequence (P27338 1-520): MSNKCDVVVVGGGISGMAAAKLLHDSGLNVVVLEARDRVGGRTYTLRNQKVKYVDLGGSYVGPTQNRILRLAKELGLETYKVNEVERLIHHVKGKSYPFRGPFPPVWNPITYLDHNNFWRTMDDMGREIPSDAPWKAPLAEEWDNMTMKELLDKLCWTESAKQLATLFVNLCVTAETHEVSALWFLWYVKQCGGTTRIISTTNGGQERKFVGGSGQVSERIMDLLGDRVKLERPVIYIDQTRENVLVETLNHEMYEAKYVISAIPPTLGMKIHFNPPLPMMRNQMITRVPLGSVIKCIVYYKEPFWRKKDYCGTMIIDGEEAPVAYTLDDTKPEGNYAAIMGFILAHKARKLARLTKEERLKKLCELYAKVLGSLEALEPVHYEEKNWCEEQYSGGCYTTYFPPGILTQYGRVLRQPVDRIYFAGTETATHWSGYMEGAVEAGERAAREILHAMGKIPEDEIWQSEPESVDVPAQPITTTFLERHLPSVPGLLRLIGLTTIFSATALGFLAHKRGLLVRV
# [3] = target: T2, hMAO-A (Homo sapiens, UniProt P21397); assay: In vitro inhibition of recombinant human MAO-A, fluorometric; format: biochemical; settings: for IC50 (μM) ± SEM hMAO-A: mean ± SEM (n = 3)
# T2 sequence (P21397 1-527): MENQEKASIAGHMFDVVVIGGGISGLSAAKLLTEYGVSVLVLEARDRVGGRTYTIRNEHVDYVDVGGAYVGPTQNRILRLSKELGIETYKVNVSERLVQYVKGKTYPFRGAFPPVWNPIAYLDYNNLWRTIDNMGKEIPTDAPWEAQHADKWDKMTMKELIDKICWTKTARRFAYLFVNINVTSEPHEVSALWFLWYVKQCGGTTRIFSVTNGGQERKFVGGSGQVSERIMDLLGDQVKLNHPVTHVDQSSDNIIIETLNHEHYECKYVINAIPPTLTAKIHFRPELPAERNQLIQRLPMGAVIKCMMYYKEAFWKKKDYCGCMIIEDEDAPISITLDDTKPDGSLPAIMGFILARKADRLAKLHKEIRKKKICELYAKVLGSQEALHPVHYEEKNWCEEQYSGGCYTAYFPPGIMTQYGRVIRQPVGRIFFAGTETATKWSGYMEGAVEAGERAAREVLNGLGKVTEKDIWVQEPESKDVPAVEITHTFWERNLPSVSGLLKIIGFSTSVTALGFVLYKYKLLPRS
# [4] = target: eeAChE (Electrophorus electricus, UniProt O42275); assay: In vitro eeAChE inhibition, Ellman's method; format: biochemical; settings: for IC50: mean ± SEM (n = 3)
# Sequence of eeAChE (O42275 24-633): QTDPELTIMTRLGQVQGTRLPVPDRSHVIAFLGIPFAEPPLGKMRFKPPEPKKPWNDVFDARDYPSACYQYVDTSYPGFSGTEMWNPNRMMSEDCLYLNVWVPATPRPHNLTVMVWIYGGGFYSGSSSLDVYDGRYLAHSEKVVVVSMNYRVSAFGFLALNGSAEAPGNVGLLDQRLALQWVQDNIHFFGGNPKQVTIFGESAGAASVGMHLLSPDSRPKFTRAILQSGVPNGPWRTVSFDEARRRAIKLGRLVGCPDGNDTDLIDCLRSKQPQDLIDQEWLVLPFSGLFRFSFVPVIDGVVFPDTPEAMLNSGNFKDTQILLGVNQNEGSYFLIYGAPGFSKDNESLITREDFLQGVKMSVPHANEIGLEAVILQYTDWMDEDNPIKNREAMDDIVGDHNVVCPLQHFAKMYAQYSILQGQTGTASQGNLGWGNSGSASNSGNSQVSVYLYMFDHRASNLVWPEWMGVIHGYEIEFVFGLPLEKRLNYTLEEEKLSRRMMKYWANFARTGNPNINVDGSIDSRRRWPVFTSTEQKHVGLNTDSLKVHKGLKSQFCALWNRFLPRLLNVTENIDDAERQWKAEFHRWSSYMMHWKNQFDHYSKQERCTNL
# [5] = tested on: animals; assay: Acute oral toxicity in animals; format: in vivo; settings: doses from 50 to 2000 mg/kg body weight, eight animals per group
# [6] = Neurotoxicity MTT assay on neuroblastoma SH-SY5Y cells; format: cell-based; settings: human
# [7] = PAMPA-BBB permeation assay; settings: prediction of BBB penetration from Pe
# [8] = target: acetylcholinesterase (Electrophorus electricus, UniProt O42275); assay: Kinetic analysis of AChE inhibition; format: biochemical
# Sequence of acetylcholinesterase (O42275 24-633): as above
Structure (SMILES),IC50 [1] [nM],IC50 [2] [nM],SI = selectivity index = IC50 of hMAO-A/IC50 of hMAO-B [2],IC50 [3] [nM],SI = selectivity index = IC50 of eqBChE/IC50 of eeAChE [4],IC50 ([4]; IC50 (μM) ± SEM eeAChE),"prediction (PAMPA-BBB) (CNS+, CNS–) [7]",other results
CC1(C)CC(=O)C2=C(C1)N=c1s/c(=C\c3c[nH]c4ccccc34)c(=O)n1C2c1c[nH]c2ccccc12 (centres unmarked) [Compound 26],19300 ± 1140,240 ± 10,2.4,570 ± 80,3.1,6.21 ± 0.16 µM,–,–
O=C1CC(c2ccccc2)CC2=C1C(c1c[nH]c3ccccc13)n1c(s/c(=C\c3c[nH]c4ccccc34)c1=O)=N2 (centres unmarked) [Compound 27],13700 ± 1210,470 ± 10,19.9,9360 ± 1010,14.1,–,–,IC50 ([4]; read-out: IC50 (μM) ± SEM eeAChE): 0.97 ± 0.1 µM
COc1ccc(C2CC(=O)C3=C(C2)N=c2s/c(=C\c4c[nH]c5ccccc45)c(=O)n2C3c2c[nH]c3ccccc23)cc1 (centres unmarked) [Compound 28],10500 ± 1090,310 ± 10,119.2,36900 ± 1220,11.8,0.89 ± 0.1 µM,–,–
O=C1CCCC2=C1C(c1c[nH]c3ccccc13)n1c(s/c(=C\c3ccc(OCc4ccccc4)cc3)c1=O)=N2 (centres unmarked) [Compound 30],8970 ± 770,370 ± 10,1.3,480 ± 30,1.9,4.67 ± 0.29 µM,–,"acute toxicity (survival, clinical signs) [5]: All animals were found alive"
CC1(C)CC(=O)C2=C(C1)N=c1s/c(=C\c3ccc(OCc4ccccc4)cc3)c(=O)n1C2c1c[nH]c2ccccc12 (centres unmarked) [Compound 31],13900 ± 990,380 ± 10,1.6,630 ± 40,3.7,3.71 ± 0.11 µM,–,–
O=C1CC(c2ccccc2)CC2=C1C(c1c[nH]c3ccccc13)n1c(s/c(=C\c3ccc(OCc4ccccc4)cc3)c1=O)=N2 (centres unmarked) [Compound 32],1700 ± 110,810 ± 10,13.9,11200 ± 1300,1.9,0.86 ± 0.14 µM,–,–
COc1ccc(C2CC(=O)C3=C(C2)N=c2s/c(=C\c4ccc(OCc5ccccc5)cc4)c(=O)n2C3c2c[nH]c3ccccc23)cc1 (centres unmarked) [Compound 33],1010 ± 60,670 ± 10,72.2,48400 ± 2280,1.3,0.79 ± 0.09 µM,–,–
O=C1CCCC2=C1C(c1c[nH]c3ccccc13)n1c(s/c(=C\c3ccc(OCCNCCc4c[nH]c5ccccc45)cc3)c1=O)=N2 (centres unmarked) [Compound 34],440 ± 10,280 ± 10,5.3,1500 ± 10,3.7,0.12 ± 0.01 µM,–,–
CC1(C)CC(=O)C2=C(C1)N=c1s/c(=C\c3ccc(OCCNCCc4c[nH]c5ccccc45)cc3)c(=O)n1C2c1c[nH]c2ccccc12 (centres unmarked) [Compound 35],630 ± 70,330 ± 10,5.8,1930 ± 10,15.0,0.04 µM and 0.042 µM,CNS+ (‘CNS+’ (prediction of high BBB permeation); Pe (10^–6 cm/s) > 4.39),"viability at 1 µM [6]: 98.9 ± 1.23%; viability at 10 µM [6]: 95.2 ± 1.54%; viability at 20 µM [6]: 94.9 ± 1.01%; viability at 40 µM [6]: 91.6 ± 1.59%; Ki [8]: 12 nM; type of inhibition ([8]; Lineweaver–Burke double reciprocal plot): mixed inhibition mode; also recorded: mixed-type inhibition; acute toxicity (survival, clinical signs) [5]: All animals were found alive"
O=C1CC(c2ccccc2)CC2=C1C(c1c[nH]c3ccccc13)n1c(s/c(=C\c3ccc(OCCNCCc4c[nH]c5ccccc45)cc3)c1=O)=N2 (centres unmarked) [Compound 36],1390 ± 60,100 ± 10,–,–,17.2,0.081 ± 0.03 µM,–,IC50 (μM) ± SEM hMAO-A [3]: not able to show MAO-A inhibition activity at tested concentration
COc1ccc(C2CC(=O)C3=C(C2)N=c2s/c(=C\c4ccc(OCCNCCc5c[nH]c6ccccc56)cc4)c(=O)n2C3c2c[nH]c3ccccc23)cc1 (centres unmarked) [Compound 37],980 ± 110,140 ± 10,–,–,14.2,0.07 µM and 0.069 µM,CNS+ (‘CNS+’ (prediction of high BBB permeation); Pe (10^–6 cm/s) > 4.39),"viability at 1 µM [6]: 96.1 ± 0.98%; viability at 10 µM [6]: 92.1 ± 1.09%; viability at 20 µM [6]: 90.33 ± 0.83%; viability at 40 µM [6]: 88.2 ± 1.55%; acute toxicity (survival, clinical signs) [5]: All animals were found alive; IC50 (μM) ± SEM hMAO-A [3]: not able to show MAO-A inhibition activity at tested concentration"
Cc1nnc2n1-c1ccc(Cl)cc1C(c1ccccc1)=NC2 [alprazolam],–,–,–,–,–,–,CNS+ (‘CNS+’ (prediction of high BBB permeation); Pe (10^–6 cm/s) > 4.39),–
NCCc1ccc(O)c(O)c1 [dopamine],–,–,–,–,–,–,CNS- (“CNS-” (prediction of low BBB permeation); Pe (10^–6 cm/s) < 1.78),–
CCn1cc(C(=O)O)c(=O)c2cc(F)c(N3CCNC(C)C3)c(F)c21 (centres unmarked) [lomefloxacin],–,–,–,–,–,–,CNS- (“CNS-” (prediction of low BBB permeation); Pe (10^–6 cm/s) < 1.78),–
CC(=O)[C@H]1CC[C@H]2[C@@H]3CCC4=CC(=O)CC[C@]4(C)[C@H]3CC[C@]12C [progesterone],–,–,–,–,–,–,CNS+ (‘CNS+’ (prediction of high BBB permeation); Pe (10^–6 cm/s) > 4.39),–
